“Also recorded” adds a separate entry of the source.
Columns and labels:
BRD4(1) = BRD4(1) (Homo sapiens, UniProt O60885); assay: AlphaScreen competitive inhibition assay, BRD4; type: binding
[1] = tested on: BPTF knockdown (KD) 4T1 cells; assay: Inhibitors with doxorubicin in shRNA-mediated BPTF knockdown 4T1 cells; type: cell-based, mouse; details: inhibitor and doxorubicin, control for off-target effects
4T1 breast cancer cells [2] = assay: Combination treatment with doxorubicin in 4T1 cells; details: combination with 50 nM doxorubicin, 4 days
Stratifin (Sfn) = assay: RT-qPCR of BPTF regulated genes in Eph4 cells, Sfn; details: 5 μM, 24 h, relative to DMSO
4T1 breast cancer cells [3] = assay: Inhibitor toxicity study in 4T1 cells; type: cell-based, mouse
5FW-BRD4(1) = 5FW-BRD4(1) (Homo sapiens, UniProt O60885); assay: Protein-observed fluorine; type: binding; details: qualitative
5FW-CECR2 = 5FW-CECR2 (Homo sapiens, UniProt Q9BXF3); assay: Protein-observed fluorine; type: binding; details: qualitative
5FW-PCAF = target: T1, 5FW-PCAF (Homo sapiens, UniProt Q92831); assay: Protein-observed fluorine; type: binding; details: qualitative
T1 sequence (Q92831 723-827): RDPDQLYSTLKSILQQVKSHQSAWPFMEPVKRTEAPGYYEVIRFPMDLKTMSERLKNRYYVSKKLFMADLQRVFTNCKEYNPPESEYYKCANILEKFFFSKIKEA

BPTF bromodomain = BPTF bromodomain (Homo sapiens, UniProt Q12830); type: binding; details: AlphaScreen
CECR2 = details: cited from earlier work
BRD9 = target: T2, BRD9 (Homo sapiens, UniProt Q9H8M2); details: previously reported; cited from earlier work
T2 sequence (Q9H8M2 136-240 limits assumed): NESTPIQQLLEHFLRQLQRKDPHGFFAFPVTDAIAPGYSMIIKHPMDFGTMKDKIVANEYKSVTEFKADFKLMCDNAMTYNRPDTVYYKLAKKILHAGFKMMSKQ

PCAF = target: T3, PCAF (Homo sapiens, UniProt Q92831); details: previously reported; cited from earlier work
T3 sequence (Q92831 723-827 limits assumed): T1 sequence (Q92831 723-827)

Sequence of 5FW-CECR2 (Q9BXF3 434-538): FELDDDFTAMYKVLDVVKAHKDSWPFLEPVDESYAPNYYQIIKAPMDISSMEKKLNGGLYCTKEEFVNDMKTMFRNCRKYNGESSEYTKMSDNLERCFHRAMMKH

CC(C)n1ncc(Nc2ccc(CN)cc2)c(Cl)c1=O [Compound 25, 5-((4-(aminomethyl)phenyl)amino)-4-chloro-2-isopropylpyridazin-3(2H)-one]
IC50 (BRD4(1)): > 250 µM

COC(=O)c1cccc(NC(=O)NC2CCN(c3ccnc(Nc4ccc(F)cc4)n3)C2)c1 (stereo not shown) [AU1, reference compound]
further toxicity in BPTF knockdown cells [1]: Additional toxicity | sensitization of 4T1 cells to doxorubicin (4T1 breast cancer cells [2]): synergize | effect on Sfn mRNA level (Stratifin (Sfn)): upregulated Sfn but did not reach a high enough level of statistical significance | concentration above which sharp toxicity profile starts (4T1 breast cancer cells [3]): above 16 μM

Cn1ncc(Nc2ccc(CCN)cc2)c(Cl)c1=O [Compound 18, 5-((4-(2-aminoethyl)phenyl)amino)-4-chloro-2-methylpyridazin-3(2H)-one]
sensitization of 4T1 cells to doxorubicin (4T1 breast cancer cells [2]; listed as BZ1): sensitized | PrOF NMR chemical exchange regime with BRD4(1) (5FW-BRD4(1)): fast-intermediate exchange | PrOF NMR chemical exchange regime with CECR2 (5FW-CECR2): intermediate chemical exchange | PrOF NMR chemical exchange regime with PCAF (5FW-PCAF): slow exchange regime

CN(C)CCc1ccc(Nc2c(Cl)cnn(C)c2=O)cc1 [Compound 20, 5-chloro-4-((4-(2-(dimethylamino)ethyl)phenyl)amino)-2-methylpyridazin-3(2H)-one]
effect on Sfn mRNA level (Stratifin (Sfn)): not significantly affected | fold weaker affinity than 18 (BPTF bromodomain): 140 fold

CN(C)CCCOc1ccc(-c2cc(NCCCn3cccn3)nc(S(C)(=O)=O)n2)cc1 [TP-238]
fold higher affinity for CECR2 over BPTF (CECR2): 12 fold

Cn1ncc(Nc2ccccc2)c(Cl)c1=O [Compound 6, 4-chloro-2-methyl-5-(phenylamino)pyridazin-3(2H)-one]
affinity for BRD9 (BRD9): 2.5 µM | affinity for PCAF (PCAF): 10 µM

CN(C)CCc1ccc(Nc2cnn(C)c(=O)c2Cl)cc1 [Compound 19, 4-chloro-5-((4-(2-(dimethylamino)ethyl)phenyl)amino)-2-methylpyridazin-3(2H)-one]
sensitization of 4T1 cells to doxorubicin (4T1 breast cancer cells [2]): sensitized; also recorded: synergize | effect on Sfn mRNA level (Stratifin (Sfn)): statistically significant increase

— publication PMC9012132 (Journal of medicinal chemistry, 2021)
